We go through 8 compounds from US20050137172A1, “Haloacetamide and azide substituted compounds and methods of use thereof” (priority 2003, published 2005).

Each structure is given as a SMILES string. Where two headings read alike, the source gives them in different places.

For one data set, the system named is DU145. The experiment in a line: Cell growth inhibition (sulforhodamine B assay). The data set is classed as cell-based. As to conditions: Homo sapiens, DU-145, 96 h, read-out: IC50 DU145. How it is done:
(§1) Prostate cancer cell lines were obtained from ATCC. All cells were grown in RPMI-1640 medium containing 2 mM L-glutamine supplemented with 10% fetal bovine serum (FBS) and maintained in a 5% CO2/95% air humidified atmosphere at 37° C.
(§2) Cells were plated on 96-well plates and incubated with drug-containing culture medium (200 μL/well) for 4 (DU 145, PC-3, PPC-1, and TSU) or 6 (LNCaP) days. Medium was replaced with freshly prepared batches every other day during the incubation. At the end of drug treatment, an aliquot of 50 μL of cold (4° C.) trichloroacetic acid (TCA, 50%) was gently layered on the top of growth medium in each well to make a final TCA concentration of 10%. The mixtures were incubated at 4° C. for 1 hour, and then washed 5 times with tap water to remove TCA, growth medium, low-molecular-weight metabolites, and serum proteins. The plates were air dried overnight. Next, fixed cells were stained with 50 μL of SRB solution (0.4%, wt/vol) for 10 minutes. After staining, SRB solution was decanted, and plates were quickly rinsed 5 times with 1% acetic acid to remove unbound dye and air dried overnight. The cellular protein-bound SRB was then dissolved with 200 μL unbuffered Tris base (10 mM, pH 10.5) for 30 minutes on a rocking platform shaker, and absorbance at 540 nm was measured by a plate reader.
(§3) Percentage of cell survival was calculated by absorbance at 540 nm in testing wells divided by absorbance in negative control wells (medium without the test compound). Percentages of cell survival versus drug concentrations were plotted and the concentration of drug that inhibited cell growth by 50% (IC50) was determined by nonlinear regression using WinNonlin (Pharsight Corporation, Mountain View, Calif.).
(§4) METHODS: LNCaP, DU145, PC-3, TSU, and PPC-1 cells were cultured in 96-well plates and treated with increasing concentrations of the compound of interest for 4 days. Cell survival was determined by the sulforhodamine B assay and was plotted as a percentage of control (drug-free wells) versus drug concentration. The concentration of drug that inhibited cell growth by 50% (IC50) was determined by nonlinear regression. Known anticancer drugs were used as cytotoxic positive controls.
(In SRB staining, fixed cells bind dye roughly in proportion to their protein.)

The subject of another data set is PC-3. The experiment in a line: Cell growth inhibition (sulforhodamine B assay). As to conditions: Homo sapiens, PC-3, 96 h, read-out: IC50 PC-3. Format: cell-based. The procedure:
as §1, §2, §3, §4

A further data set has as its system TSU. Nature of the data set: Cell growth inhibition (sulforhodamine B assay). The data set is classed as cell-based. Particulars: Homo sapiens, 96 h, read-out: IC50 TSU. How it is done:
as §1, §2, §3, §4

The subject of another data set is LNCaP. The experiment in a line: Cell growth inhibition (sulforhodamine B assay). Particulars: Homo sapiens, read-out: IC50 LNCaP. The data set is classed as cell-based. How it is done: as §1, §2, §3, §4
The test system of another data set is PPC-1. Nature of the data set: Cell growth inhibition (sulforhodamine B assay). The data set is classed as cell-based. As to conditions: Homo sapiens, PPC-1, 96 h, read-out: IC50 PPC-1. How it is done: as §1, §2, §3, §4
Data set [1] has as its system LNCaP cells. The experiment in a line: Growth curve (trypan blue cell count, 120 h). The data set is classed as cell-based, human. The procedure: (§5) MATERIALS: DMSO is the vehicle control and the solvent for Compound A and Compound B.
(§6) METHODS: Cells were plated at 5-10×10^4 cells/well in five 6-well plates and incubated at 37° C., 5% CO2 for 24 h to allow the cells sufficient time to attach and be in log phase growth at the start of the experiment. The media was aspirated from four of the plates and replaced with media containing vehicle control (DMSO) or drug dissolved in DMSO. The total volume of DMSO/drug added to each well was equal to 0.1% of the media volume in each well. LNCaP, PC-3, MCF-7, and CV-1 cells were treated with vehicle control, and increasing concentrations of Compound A and Compound B (0.01, 0.05, 0.1, 0.5, 1.0, 5.0, and 10.0 μM). Three wells were treated with the same concentration of the drugs or DMSO for each treatment condition listed above. The cells from the remaining 6-well plate were collected and counted to determine plating efficiency. The 6-well plates containing DMSO/drug were incubated for 120 h at 37° C., 5% CO2. After 120 h, the media from each well was collected along with trypsinized cells and centrifuged at 150×g for 4 min. The cells were resuspended in 1 mL of media, from which 90 μl was taken and combined with 10 μl trypan blue for counting on a hemacytometer.

Data set [2] deals with five prostate cancer cell lines. Nature of the data set: Cell growth inhibition (sulforhodamine B assay), all five lines together. Particulars: for IC50 values in inhibiting the growth of all of five prostate cancer cell lines: DU 145, PC-3, TSU, PPC-1, LNCaP; for IC50s from one-day treatment versus 4 or 6 days treatment: comparison of treatment durations. The data set is classed as cell-based, human. The procedure:
as §1, §2, §3, §4

For data set [3], the system named is LNCaP cells. The experiment in a line: TUNEL assay (apoptosis, DNA fragmentation). As to conditions: LNCaP cells exposed for 24 hours, relative to 0.1% DMSO vehicle control. Format: cell-based, human. How it is done:
MATERIALS: In Situ Cell Death Detection Kit, Fluorescein (Roche).
METHODS: DNA fragmentation of apoptotic cells was monitored by the TUNEL assay as described by the supplier. Briefly, LNCaP cells were plated at 2×10^5 cells/well in 2-well chamber slides and incubated at 37° C., 5% CO2 for 24 h to allow the cells sufficient time to attach and be in log phase growth at the start of the experiment. The media was aspirated and replaced with media containing vehicle control (DMSO) or drug dissolved in DMSO. The total volume of DMSO/drug added to each well was equal to 0.1% of the media volume in each well. LNCaP cells were treated with vehicle control, and increasing concentrations of Compound A and Compound B ([…]) for 24-48 h. Two wells were treated with the same concentration of the drugs or DMSO for each treatment condition listed above. The media was collected along with the trypsinized cells and centrifuged at 150 ×g for 4 min. The cells were resuspended in 50 μl PBS, pipetted onto poly-lysine coated slides, and then fixed in 4% methanol-free formaldehyde in PBS (H 7.4) for 25 min at 4° C. Cells were permeabilized in 0.2% Triton X-100 in PBS for 5 min at room temperature. […] Green and red fluorescence emissions were observed microscopically using 520 nm and >620 nm filters, respectively.

A further data set deals with MCF-7 cells. Nature of the data set: Growth curve (trypan blue cell count, 120 h). Format: cell-based. As to conditions: FIG. 2B. How it is done:
as §5, §6

Setting [4] is: sulforhodamine B assay, 4 days treatment.
[5] abbreviates: sulforhodamine B assay, 4 or 6 days treatment.

As usually defined, the melting point is the temperature, or range, at which the solid turns liquid. Compound `C[C@](O)(COc1ccc(NC(=O)C(F)(F)F)cc1)C(=O)Nc1ccc([N+](=O)[O-])c(C(F)(F)F)c1` gave a melting point of 58 to 60 °C.

The compound `C[C@](O)(COc1ccc(NC(=O)CI)cc1)C(=O)Nc1ccc(C#N)c(C(F)(F)F)c1` (hydrate or solvate) returned a melting point of 78 to 80 °C.

As for `C[C@](O)(COc1ccc(NC(=O)C(Cl)(Cl)Cl)cc1)C(=O)Nc1ccc([N+](=O)[O-])c(C(F)(F)F)c1` (hydrate or solvate), the melting point is 59 to 61 °C.

The compound `C[C@](O)(COc1ccc(N2C(=O)C=CC2=O)cc1)C(=O)Nc1ccc([N+](=O)[O-])c(C(F)(F)F)c1` (hydrate or solvate) showed a melting point of 82 to 84 °C.

In general, IC50 refers to the concentration that gives 50% inhibition. For `O=c1[nH]cc(F)c(=O)[nH]1` [Compound 5-FU, fluorouracil, reference compound], the IC50 in the data set on DU145 (setting [4]) is 2600 ± 900 nM; in the data set with PC-3 (setting [4]) it was 12100 ± 900 nM; in the data set on TSU (setting [4]) it was 2900 ± 900 nM; with LNCaP (setting [5]) it was 900 ± 300 nM; in the data set with PPC-1 (setting [4]) it was 5500 ± 300 nM.

`C[C@](O)(COc1ccc(NC(=O)CBr)cc1)C(=O)Nc1ccc([N+](=O)[O-])c(C(F)(F)F)c1` [Compound A]: the “Growth inhibitory activity across cell lines (selectivity)” value in the data set with LNCaP cells [1] (LNCaP versus PC-3, MCF-7 and CV-1 cells, FIG. 2A) is reported as “non-selective growth inhibitory activity”. The “IC50 values in inhibiting the growth of all of five prostate cancer cell lines” value in [2] is on record as “low micro-molar range”. Further, the “IC50s from one-day treatment versus 4 or 6 days treatment” value in [2] was “did not show significant difference”. In the data set on LNCaP cells [3], the “Apoptosis (green fluorescence, fragmented DNA) in TUNEL assay” value is recorded as “exhibit green fluorescence”. For the same compound, the IC50 in the data set on DU145 (setting [4]) is 1300 ± 300 nM; in the data set on PC-3 (setting [4]), 2410 ± 600 nM; in the data set on TSU (setting [4]) it was 400 ± 300 nM; with LNCaP (setting [5]), 1100 ± 200 nM; in the data set on PPC-1 (setting [4]) it was 1100 ± 100 nM.

`C[C@](O)(COc1ccc(NC(=O)CCl)cc1)C(=O)Nc1ccc([N+](=O)[O-])c(C(F)(F)F)c1` [Compound B]: in the data set with LNCaP cells [1] (growth curve, FIG. 2B), the “Sensitivity of LNCaP cells relative to PC-3 or CV-1 cells” value was “approximately 10 fold”. Besides, the “IC50 values in inhibiting the growth of all of five prostate cancer cell lines” value in data set [2] is given as “low micro-molar range”. For the same compound, in [2], the “IC50s from one-day treatment versus 4 or 6 days treatment” value is “did not show significant difference”. Moreover, in the data set on LNCaP cells [3], the “Apoptosis (green fluorescence, fragmented DNA) in TUNEL assay” value is on record as “similar”. The “Concentration at which MCF-7 cells are sensitive” value in the data set on MCF-7 cells was over 5 µM. For the same compound, the IC50 is 900 ± 100 nM in the data set on DU145 (setting [4]); 4200 ± 200 nM in the data set with PC-3 (setting [4]); 1400 ± 400 nM in the data set on TSU (setting [4]); 4400 ± 800 nM in the data set with LNCaP (setting [5]); 1800 ± 100 nM in the data set with PPC-1 (setting [4]).

Turning to `N[C@@H](Cc1ccc(N(CCCl)CCCl)cc1)C(=O)O` [Melphalan, reference compound], the IC50 in the data set on DU145 was found to be 31000 ± 4800 nM; in the data set with PC-3 it was 30400 ± 3100 nM; with TSU it was 4000 ± 200 nM; with LNCaP, 10300 ± 100 nM; with PPC-1, 16200 ± 1800 nM.
